Reference: article PMC8443696, “Structural determinants and regulation of spontaneous activity in GABAA receptors” (Nature Communications, 2021)
Where “and” joins values, the source holds several entries; their conditions need not be identical. Equal entries are not always repeated. Where two headings read alike, the source gives them in different places.

Tests used:
α4β3δ receptors [1] = target: T1, α4β3δ receptors (UniProt P18506+P63080+Q9D6F4); format: cell-based, mouse; settings: α4β3δ GABA (Fig. 1d); GABA 500 µM, PTX 100 µM; individual cells
T1 construct: expressed in transfected cells; host or cells: HEK 293
Description: (§1) All components were obtained from Life Technologies.
(§2) Currents were acquired with Clampex ver.
(§3) Cells were voltage clamped at −40 mV.
(§4) For assessment of the efficacy of allosteric modulators on spontaneous activity, compounds were briefly applied (3–5 s) to achieve steady-state currents (IMod). […] The IMod was summed with IPTX (or subtracted for inhibitory modulators) and the Ispont calculated, as described by Eq. (2):2 Ispont(%)=[(IPTX+IMod)/(IPTX+IMax)]×100……………………………………

α4β3δ receptors [2] = target: T1, α4β3δ receptors; assay: Agonist-evoked whole-cell currents and their modulation by Zn2+ / DS2 in HEK cells; format: cell-based, mouse; settings: GABA alone, individual cells;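 on GABA current, Supp. Fig. 2b: GABA applied at 0.3 µM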
Description: as §1, §2, §3

α4β3δ receptors [3] = target: T1, α4β3δ receptors; format: cell-based, mouse
Description: as §1, §2, §3
(§5) All data were normalised to the fitted maximum response.

α4β3^K279Tγ2L receptors = α4β3^K279Tγ2L receptors (Mus musculus, UniProt P22723+P63080+Q9D6F4, K304T)
Description: as §1, §2, §3, §5

α4β3^DNTKδ receptors = α4β3^DNTKδ receptors (UniProt P18506+P63080+Q9D6F4, E204T/G196D/K198N/R205K)
Description: as §1, §2, §3, §5

α4β3γ2L receptors [4] = target: T2, α4β3γ2L receptors (Mus musculus, UniProt P22723+P63080+Q9D6F4); assay: Agonist-evoked whole-cell currents and their modulation by Zn2+ in HEK cells; format: cell-based; settings: GABA alone, individual cells
T2 construct: expressed in transfected cells; host or cells: HEK 293
Description: as §1, §2, §3

α4β3γ2L receptors [5] = target: T2, α4β3γ2L receptors; assay: GABA concentration-response curves, whole-cell patch clamp in HEK cells; format: cell-based
Description: as §1, §2, §3, §5

α4β3 receptors = system: T3, α4β3 receptors; assay: Agonist-evoked whole-cell currents and their modulation by Zn2+ / DS2 in HEK cells;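 on GABA current, Supp. Fig. 2b: GABA applied at 0.3 µM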; format: cell-based, mouse; design: GABA current, Supp. Fig. 2b / GABA + DS2 current, Supp. Fig. 2b / GABA current, Supp. Fig. 2a: unit not given here
T3 construct: expressed in transfected cells; host or cells: HEK 293
Description: as §1, §2, §3

α1β3γ2L receptors = system: T4, α1β3γ2L receptors; assay: Quantification of spontaneous activity (Ispont) in HEK cells, whole-cell patch clamp; format: cell-based, mouse; settings: α1β3γ2L GABA (Fig. 1d); GABA 500 µM, PTX 100 µM; individual cells
T4 construct: expressed in transfected cells; host or cells: HEK 293
Description: as §1, §2, §3, §4

NCCCC(=O)O [GABA, γ-aminobutyric acid]
Ispont, IMax from GABA (α4β3δ receptors [1]): 6.076% and 14.3782% and 18.0154% and 11.8804% and 19.3061% and 35.4037% and 16.1707% | GABA current, Supp. Fig. 2a (α4β3δ receptors [2]): 0.41 and 0.73 and 1.32 and 2.78 | GABA current, Supp. Fig. 2b (α4β3δ receptors [2]): 0.53 and 0.27 and 0.065 and 0.26 and 0.65 | GABA current normalised to the fitted maximum response (α4β3δ receptors [3]; [GABA] 0.1, individual cells): 0.5073 and 0.405 and 0.6131 | nH (α4β3δ receptors [3]; individual cells): 0.63 and 0.57 and 0.45 and 0.59 and 0.53 and 0.44 and 0.46 and 0.51 | Hill coefficient (α4β3δ receptors [3]; mean ± SEM, n = 9): 0.5 ± 0.02 | GABA current normalised to the fitted maximum response (α4β3^K279Tγ2L receptors; α4β3K279Tγ2L, [GABA] 0.001, individual cells): 0.2519 and 0 (3×) and 0.1524 and 0.248 | GABA current normalised to the fitted maximum response (α4β3^K279Tγ2L receptors; α4β3K279Tγ2L, [GABA] 0.003, individual cells): 0.1404 and 0.2434 and 0.2001 and 0.06943 and 0 (2×) | GABA current normalised to the fitted maximum response (α4β3^K279Tγ2L receptors; α4β3K279Tγ2L, [GABA] 0.01, individual cells): 0.2519 and 0.1217 and 0.166 and 0.124 and 0.0823 and 0.03949 | GABA current normalised to the fitted maximum response (α4β3^K279Tγ2L receptors; α4β3K279Tγ2L, [GABA] 0.03, individual cells): 0.2267 and 0.2011 and 0.2911 and 0.2232 and 0.2097 and 0.1075 | GABA current normalised to the fitted maximum response (α4β3^K279Tγ2L receptors; α4β3K279Tγ2L, [GABA] 0.1, individual cells): 0.3277 and 0.4723 and 0.5922 and 0.2125 and 0.4931 and 0.3266 | GABA current normalised to the fitted maximum response (α4β3^K279Tγ2L receptors; α4β3K279Tγ2L, [GABA] 0.3, individual cells): 0.407 and 0.5504 and 0.3093 and 1.165 and 0.3595 | GABA current normalised to the fitted maximum response (α4β3^K279Tγ2L receptors; α4β3K279Tγ2L, [GABA] 1, individual cells): 0.6167 and 0.8427 and 0.9144 and 0.4437 and 0.6991 and 0.6708 | GABA current normalised to the fitted maximum response (α4β3^K279Tγ2L receptors; α4β3K279Tγ2L, [GABA] 3, individual cells): 0.7288 | nH (α4β3^K279Tγ2L receptors; α4β3K279Tγ2L, individual cells): 0.3987 and 0.6455 and 0.6824 and 0.44 and 1.925 and 0.7169 | Hill coefficient (α4β3^K279Tγ2L receptors; α4β3^K279Tγ2L, mean ± SEM, n = 6): 0.8 ± 0.2 | GABA current normalised to the fitted maximum response (α4β3^DNTKδ receptors; α4β3DNTKδ, [GABA] 0.01, individual cells): 0.0007434 and 0.002452 and 0.03107 and 0.001383 and 0.00433 and 0.003861 and 0.002036 and 0.01162 and 0 and 0.01893 | GABA current normalised to the fitted maximum response (α4β3^DNTKδ receptors; α4β3DNTKδ, [GABA] 0.03, individual cells): 0.007062 and 0.01195 and 0.04826 and 0.01383 and 0.009382 and 0.004413 and 0.007126 and 0.02054 and 0.004552 and 0.04327 | GABA current normalised to the fitted maximum response (α4β3^DNTKδ receptors; α4β3DNTKδ, [GABA] 0.1, individual cells): 0.04328 and 0.0495 and 0.09628 and 0.06221 and 0.03922 and 0.04794 and 0.04133 and 0.1252 and 0.03443 and 0.105 | GABA current normalised to the fitted maximum response (α4β3^DNTKδ receptors; α4β3DNTKδ, [GABA] 0.3, individual cells): 0.1541 and 0.16 and 0.2541 and 0.193 and 0.1198 and 0.1414 and 0.1295 and 0.114 and 0.2315 | GABA current normalised to the fitted maximum response (α4β3^DNTKδ receptors; α4β3DNTKδ, [GABA] 1, individual cells): 0.3807 and 0.3987 and 0.5261 and 0.4351 and 0.4134 and 0.5199 and 0.3786 and 0.5032 | GABA current normalised to the fitted maximum response (α4β3^DNTKδ receptors; α4β3DNTKδ, [GABA] 3, individual cells): 0.6642 and 0.6962 and 0.7428 and 0.6422 and 0.5604 and 0.7146 and 0.5958 and 0.7349 and 0.6146 and 0.6907 | GABA current normalised to the fitted maximum response (α4β3^DNTKδ receptors; α4β3DNTKδ, [GABA] 10, individual cells): 0.8725 and 0.8838 and 0.9794 and 0.868 and 0.8251 and 0.879 and 0.7932 and 0.8504 and 0.9182 and 0.913 | GABA current normalised to the fitted maximum response (α4β3^DNTKδ receptors; α4β3DNTKδ, [GABA] 30, individual cells): 0.9699 and 0.9833 and 0.9744 and 0.9032 and 0.8901 and 0.9131 and 0.9034 and 0.7914 and 0.976 and 0.9404 | GABA current normalised to the fitted maximum response (α4β3^DNTKδ receptors; α4β3DNTKδ, [GABA] 100, individual cells): 0.9851 and 0.9946 and 0.9484 and 0.9857 and 0.9989 and 1.0526 and 1.007 and 0.9834 and 1.041 and 0.9979 | GABA current normalised to the fitted maximum response (α4β3^DNTKδ receptors; α4β3DNTKδ, [GABA] 300, individual cells): 0.994 and 0.9896 and 0.9955 and 1.01 and 0.9818 and 1.0044 and 0.9828 and 1.081 and 0.9165 and 0.972 | nH (α4β3^DNTKδ receptors; α4β3DNTKδ, individual cells): 0.91 and 0.96 and 1.1 and 0.94 and 0.75 and 1.12 and 1.06 and 1 | Hill coefficient (α4β3^DNTKδ receptors; α4β3^DNTKδ, mean ± SEM, n = 10): 1.0 ± 0.04 | GABA current, Supp. Fig. 2a (α4β3γ2L receptors [4]): 1.69 and 2.20 and 3.55 and 12.70 | GABA current normalised to the fitted maximum response (α4β3γ2L receptors [5]; [GABA] 0.01, individual cells): 0.001664 and 0.002276 and 0.001669 and 0.01171 and 0.01147 | GABA current normalised to the fitted maximum response (α4β3γ2L receptors [5]; [GABA] 0.03, individual cells): 0.005144 and 0.004138 and 0.00402 and 0.01346 and 0.01822 | GABA current normalised to the fitted maximum response (α4β3γ2L receptors [5]; [GABA] 0.1, individual cells): 0.01452 and 0.01076 and 0.01069 and 0.03174 and 0.04395 | GABA current normalised to the fitted maximum response (α4β3γ2L receptors [5]; [GABA] 0.3, individual cells): 0.02596 and 0.02427 and 0.06574 and 0.085 | GABA current normalised to the fitted maximum response (α4β3γ2L receptors [5]; [GABA] 1, individual cells): 0.09711 and 0.06608 and 0.07868 and 0.1536 and 0.188 | GABA current normalised to the fitted maximum response (α4β3γ2L receptors [5]; [GABA] 3, individual cells): 0.2349 and 0.1582 and 0.203 and 0.3143 and 0.3127 | GABA current normalised to the fitted maximum response (α4β3γ2L receptors [5]; [GABA] 10, individual cells): 0.4431 and 0.3362 and 0.4922 and 0.6263 and 0.5927 | GABA current normalised to the fitted maximum response (α4β3γ2L receptors [5]; [GABA] 30, individual cells): 0.548 and 0.6886 and 0.7844 and 0.7581 | GABA current normalised to the fitted maximum response (α4β3γ2L receptors [5]; [GABA] 100, individual cells): 0.7417 and 0.7257 and 0.7724 and 0.8852 and 0.8968 | GABA current normalised to the fitted maximum response (α4β3γ2L receptors [5]; [GABA] 300, individual cells): 0.8265 and 0.8069 and 0.8364 and 0.9453 and 0.9104 | GABA current normalised to the fitted maximum response (α4β3γ2L receptors [5]; [GABA] 1000, individual cells): 0.9797 and 0.9449 and 0.994 and 1.0249 and 1.018 | GABA current normalised to the fitted maximum response (α4β3γ2L receptors [5]; [GABA] 3000, individual cells): 0.9857 and 0.9907 and 1.044 and 0.9972 and 0.9754 | nH (α4β3γ2L receptors [5]; individual cells): 0.6867 and 0.7293 and 0.7792 and 0.8713 and 0.7855 | Hill coefficient (α4β3γ2L receptors [5]; mean ± SEM, n = 5): 0.8 ± 0.03 | Whole-cell current activated by GABA (α4β3 receptors; 500 µM GABA, n = 7): 237 ± 95 pA | GABA current, Supp. Fig. 2a (α4β3 receptors; GABA alone, individual cells): 0.31 and 0.16 and 0.22 and 0.23 and 0.064 | GABA current, Supp. Fig. 2b (α4β3 receptors; GABA alone, individual cells): 0.04 and 0.13 and 0.11 and 0.10 and 0.27 | Ispont, IMax from GABA (α1β3γ2L receptors): 0.9134% and 0.3206% and 5.267% and 3.501% and 0.7067% and 1.417%
